Results taken from patent US20240342158A1, “METHOD OF TREATING AND/OR PREVENTING TYPE 1 DIABETES WITH CEPHARANTHINE” (ALBERT EINSTEIN COLLEGE OF MEDICINE, priority 2021, published 2024).

Key:
[1] = test system: splenocytes and draining lymph node cells of immunized NOD-DR3 mice; assay: Small molecule inhibition of cytokine production ex vivo (Milliplex); assay type: cell-based, humanized NOD-DR3 mice
Procedure: Cytokine Assays: Milliplex mouse cytokines/chemokine magnetic panel (Catalog no. MCYTOMAG-70K, EMD Millipore Corporation, Billerica, MA) was used to assay the cytokines, as described in the art. Briefly, splenocytes were plated at 2×10^6 cells per well in 500 μl of medium (RPMI/10% FBS). Supernatants from stimulated lymphocytes were collected 48 h after stimulation with peptides and stored in −80° C. until the assay was performed. The 96-well plate supplied in the kit was washed with the wash buffer supplied and the plate was shaken for 10 min at room temperature. Standards and quality controls were added, followed by the samples. The pre-mixed beads (Interferon gamma and IL-2) were sonicated, vortexed and added to the wells. After shaking the plate overnight at 4° C., the plate was washed twice with wash buffer. Detection antibodies were added for 1 h at room temperature, and Streptavidin-Phycoerythrin was added for 30 min at room temperature. The plate was washed twice and sheath fluid was added to resuspend the beads for 5 min before reading in Luminex 200 with xPONENT software (Luminex, Austin, Texas).
Small Molecule Inhibition of Cytokine Production Ex Vivo: Eight NOD-DR3 mice were immunized with the three thyroidal/islet peptides. Upon sacrifice, splenocytes were incubated with 1 μM of small molecules (S5, S9, S15, S53) together with TPO.758 (20 μg/ml), GAD.492 (20 μg/ml) or Tg.1571 (20 μg/ml) respectively to assess the blockade of these peptides' presentation by the tested small molecules. Supernatants from stimulated lymphocytes were collected 48 h after stimulation with peptides and small molecules, and stored in −80° C. until the cytokine assay was performed. […]

[2] = molecular target: recombinant APS3v-HLA-DR3 (Homo sapiens, UniProt P01903+P01911, A100K/A102G/A103R/F55Y/I96L/K41T/P40S/Q125H/Q178H/Q39Y/R42S/S66N/T106N/W38E/Y61H); assay: ELISA inhibition assay of biotinylated peptide binding to recombinant APS3v-HLA-DR3
Procedure: An in vitro binding assay was performed. […] On the day before the immunoassay was performed, a 96-well DELFIA yellow plate (PerkinElmer Life Science) was coated overnight with 20 μg/ml of L243 antibody [Hybridoma was purchased from ATCC, catalogue number HB-55, and IgG was purified by QED Bioscience (San Diego, CA)] in bicarbonate buffer, pH 9.6 (Sigma-Aldrich). L243 is a monoclonal antibody that specifically recognizes the DRa chain of HLA-DR when it is properly folded and complexed with the b chain. The plate was then washed with DELFIA wash buffer (diluted 1:25 from DELFIA wash concentrate, PerkinElmer) to wash off the excess L243 antibody. Blocking was performed using 2.5% BSA in PBS at room temperature for 1 h. After washing 4 times, 100 μl of the pre-incubated mix (containing recombinant APS3v-HLA-DR3 protein, APO, and small molecules) were added onto the plate and shaken at slow speed for 2 h at room temperature. After washing 4 times, DELFIA Europium-labeled streptavidin (PerkinElmer) diluted in DELFIA assay buffer (PerkinElmer) was added for 30 min and shaken at slow speed at room temperature. After washing for 6 times, DELFIA Enhancement Solution was added for 1 h until the optimal signal was reached. Time-resolved fluorescence was measured using the BMG reader (BMG Labtech, Cary, NC). A virtual screen identified 100 small molecules that were predicted to block the unique APS3v-HLA-DR3 pocket. To produce a manageable selection of compounds for validation we clustered the 100 compounds by their simplified molecular input line entry system (SMILES) similarity into 20 clusters. Of the 20 clusters we selected the top scoring members in each cluster. We have enhanced this list to include a total of 11 compounds that blocked APS3v-HLA-DR3, the key HLA-DR3 pocket that triggers APS3v. We tested the selected 11 small molecules identified by the virtual screen in our in vitro ELISA, to test whether the 11 small molecules can block APO peptide (the strongest known peptide binder to HLA-DR3) binding to recombinant APS3v-HLA-DR3. Of the 4 validated small molecules we selected S53 for further testing because it is the only one that has been used in humans before. […] ELISA was performed as previously described.

Chain of recombinant APS3v-HLA-DR3 (P01911 30-227 W38E/Q39Y/P40S/K41T/R42S/F55Y/Y61H/S66N/I96L/A100K/A102G/A103R/T106N/Q125H/Q178H): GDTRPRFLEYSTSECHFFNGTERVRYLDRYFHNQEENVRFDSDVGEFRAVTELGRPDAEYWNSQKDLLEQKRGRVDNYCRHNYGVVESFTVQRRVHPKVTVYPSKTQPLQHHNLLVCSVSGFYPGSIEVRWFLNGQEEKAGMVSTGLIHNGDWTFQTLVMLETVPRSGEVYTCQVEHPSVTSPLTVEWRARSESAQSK
Chain of recombinant APS3v-HLA-DR3 (P01903 26-216): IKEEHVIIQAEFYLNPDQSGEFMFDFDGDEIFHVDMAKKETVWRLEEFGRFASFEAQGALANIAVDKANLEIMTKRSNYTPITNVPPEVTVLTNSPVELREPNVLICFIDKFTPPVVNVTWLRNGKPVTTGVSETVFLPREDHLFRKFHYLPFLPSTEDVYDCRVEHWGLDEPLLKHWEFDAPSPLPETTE

COc1ccc2cc1Oc1ccc(cc1)C[C@H]1c3c(cc4c(c3Oc3cc5c(cc3OC)CCN(C)[C@@H]5C2)OCO4)CCN1C [S53, Cepharanthine]
IFN-g production in response to Tg.1571 ([1]; 1 μM small molecule + Tg.1571 20 μg/ml, 48 h): did not significantly reduce | inhibition of T-cell activation to all 3 peptides (production of IFNγ and IL-2) ([1]; 1 micromolar, Tg.1571, GAD.492, TPO.758): consistently inhibited T-cell activation to all 3 peptides | inhibition of binding of the 3 peptides (TPO.758, GAD.492, Tg.1571) to the HLA-DR3 pocket ([2]; ELISA inhibition assay, final concentration 0.4 mM): significant inhibition of binding for all 3 peptides | blocking of binding of biotinylated APO, TPO.758, GAD.492 and Tg.1571 to APS3v-HLA-DR3 ([2]; decreasing doses 0.4 mM, 0.2 mM, 0.1 mM, 0.05 mM): blocked the binding of each peptide in a dose-dependent manner
